Assay results from the CheMixHub viscosity set.
Values joined by “and” are separate entries in the source; they are usually repeats but may differ in a detail not shown here. Equal values may be shown once.

How the values were obtained:
[1] = xn = mol fraction of the nth substance listed

CCCCC(CC)COP(=O)(OCC(CC)CCCC)OCC(CC)CCCC (centres undefined)
Details	viscosity [mPa·s]
308.15 K, 101 kPa	8.206

OC1CCCCCC1
100 kPa
Details	viscosity [mPa·s]
293.15 K	68.77
298.15 K	53.6
303.15 K	43.34
308.15 K	35.61
313.15 K	30.84
318.15 K	26.6

CC[N+](=O)[O-]
viscosity
Details	293.15 K	298.15 K	303.15 K	308.15 K	313.15 K	318.15 K
101 kPa	–	–	0.5737 mPa·s	0.5507 mPa·s	–	0.5009 mPa·s
101.33 kPa	0.68 mPa·s and 0.679 mPa·s and 0.679 mPa·s	0.638 mPa·s	0.605 mPa·s and 0.605 mPa·s	–	0.544 mPa·s and 0.544 mPa·s	–

O=C(O)C(Cl)(Cl)Cl
Details	viscosity
323.15 K, 101 kPa	4.824 mPa·s (2×) and 5.323 mPa·s and 4.797 mPa·s

CCCC(=O)OCC
Details	viscosity [mPa·s]
303.15 K, 101 kPa	0.5776

CCn1ccnc1
viscosity [mPa·s]
Details	298.15 K	308.15 K	318.15 K
100 kPa	1.93	1.59	1.34
101 kPa	1.933	1.594	1.343

CCCCCCCCCC(=O)OCC
Details	viscosity [mPa·s]
298.15 K, 100 kPa	2.112

Cc1ccncc1
Details	viscosity [mPa·s]
298.15 K, 101.33 kPa	0.86

CCC(C)(C)C
Details	viscosity [mPa·s]
298 K, 101.33 kPa	0.3406

CCCC(=O)OCC(COC(=O)CCC)OC(=O)CCC
101.33 kPa
Details	viscosity [mPa·s]
298 K	8.68
303 K	7.38
308 K	6.32
313 K	5.49

[Cl-].[Cl-].[Cl-].[Sb+3]
Details	viscosity [mPa·s]
323.15 K, 101 kPa	3.926

CCCCN + Cc1cccc(C)c1
[1], 303.15 K, 101 kPa
Details	viscosity [mPa·s]
x1 = 0.0824	0.525
x1 = 0.1495	0.516
x1 = 0.2739	0.497
x1 = 0.387	0.484
x1 = 0.4543	0.476
x1 = 0.5525	0.469
x1 = 0.6484	0.462
x1 = 0.7553	0.457
x1 = 0.816	0.453
x1 = 0.8978	0.448
x1 = 0.9469	0.445

CCn1ccnc1 + CO
viscosity [mPa·s], [1], 101 kPa
Details	298.15 K	308.15 K	318.15 K
x1 = 0.0461	0.654	0.5768	0.5141
x1 = 0.1003	0.7495	0.6547	0.5802
x1 = 0.2389	1.012	0.8673	0.7489
x1 = 0.3039	1.133	0.967	0.8304
x1 = 0.3938	1.285	1.085	0.9324
x1 = 0.4588	1.383	1.163	0.9927
x1 = 0.5724	1.525	1.275	1.085
x1 = 0.7001	1.669	1.388	1.177
x1 = 0.794	1.766	1.467	1.24
x1 = 0.8988	1.861	1.536	1.296
x1 = 0.9431	1.89	1.56	1.316

CCCCCCCCCC(=O)OCC + CCCO
viscosity [mPa·s], [1], 100 kPa
Details	x1 = 0.1002	x1 = 0.2005	x1 = 0.2999	x1 = 0.4	x1 = 0.4999	x1 = 0.601	x1 = 0.7	x1 = 0.7998	x1 = 0.9011
293.15 K	2.031	1.963	1.956	1.986	2.013	2.057	2.123	2.176	2.25
298.15 K	1.809	1.759	1.757	1.786	1.814	1.854	1.912	1.97	2.029
303.15 K	1.618	1.586	1.587	1.611	1.642	1.681	1.74	1.78	1.845
308.15 K	1.456	1.433	1.438	1.461	1.493	1.53	1.578	1.623	1.681
313.15 K	1.315	1.299	1.309	1.333	1.364	1.403	1.446	1.486	1.538
318.15 K	1.192	1.183	1.196	1.22	1.25	1.285	1.33	1.368	1.415

CCCCN
viscosity
Details	293.15 K	298.15 K	303.15 K	308.15 K	313.15 K	318.15 K	323.15 K
100 kPa	–	0.468 mPa·s	0.458 mPa·s	–	0.398 mPa·s	–	0.353 mPa·s
101 kPa	0.55 mPa·s and 0.523 mPa·s	0.48 mPa·s and 0.474 mPa·s	–	–	0.401 mPa·s and 0.3922 mPa·s and 0.3891 mPa·s	0.3695 mPa·s	0.3491 mPa·s
101.33 kPa	–	–	–	0.412 mPa·s	0.3891 mPa·s and 0.3887 mPa·s and 0.397 mPa·s	0.3676 mPa·s	0.3486 mPa·s and 0.355 mPa·s

CC[N+](=O)[O-] + CCCO
viscosity [mPa·s], [1], 101.33 kPa
Details	293.15 K	303.15 K	313.15 K
x2 = 0.05	0.686	0.609	0.544
x2 = 0.1	0.683	0.605	0.539
x2 = 0.1499	0.69	0.607	0.539
x2 = 0.2001	0.702	0.617	0.547
x2 = 0.25	0.72	0.629	0.554
x2 = 0.3	0.748	0.647	0.567
x2 = 0.35	0.776	0.667	0.581
x2 = 0.4	0.808	0.694	0.609
x2 = 0.45	0.848	0.724	0.623
x2 = 0.5	0.898	0.758	0.655
x2 = 0.55	0.951	0.8	0.681
x2 = 0.6	1.016	0.852	0.718
x2 = 0.65	1.085	0.902	0.756
x2 = 0.7	1.17	0.967	0.808
x2 = 0.75	1.282	1.043	0.881
x2 = 0.8	1.391	1.133	0.947
x2 = 0.85	1.539	1.243	1.035
x2 = 0.9	1.717	1.377	1.125
x2 = 0.95	1.945	1.559	1.239

CC[N+](=O)[O-] + c1ccccc1
[1], 293.15 K, 101.33 kPa
Details	viscosity [mPa·s]
x1 = 0.0901	0.628
x1 = 0.1956	0.611
x1 = 0.2856	0.602
x1 = 0.3897	0.595
x1 = 0.4893	0.594
x1 = 0.5827	0.597
x1 = 0.6952	0.608
x1 = 0.7869	0.622
x1 = 0.879	0.644

CCCCN + C=C(C)C(=O)OC
[1], 303.15 K, 101 kPa
Details	viscosity [mPa·s]
x2 = 0.1016	0.4525
x2 = 0.1939	0.4608
x2 = 0.3316	0.4724
x2 = 0.4989	0.4852
x2 = 0.5966	0.4921
x2 = 0.8001	0.5045
x2 = 0.9006	0.5097
